Laboratory results: PubChem BioAssay AID256 (DTP/NCI, 2004)
Toxic doses and inconclusive results are not listed. Rule for the calls: active = survival T/C of 150% or more; inactive = T/C below 125% in these data.

Test system: CD2F1 mice, L1210 leukemia ip, survival T/C
Experiment: NCI In Vivo Anticancer Drug Screen. Data for tumor model L1210 Leukemia (intraperitoneal) in CD2F1 (CDF1) mice
Settings: endpoint: mean survival time, higher = longer survival
Summary of the method: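 Tumor-bearing mice (transplanted tumor) were split into treated and vehicle control groups, and the measured endpoint of each treated group was divided by that of its vehicle controls.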

[1] = dose: 100.0 mg/kg/injection, schedule: Q01DX009 (ip), vehicle: saline with Tween-80
[2] = dose: 100.0 mg/kg/injection, schedule: Q04DX003 (ip), vehicle: saline with Tween-80
[3] = dose: 200.0 mg/kg/injection, schedule: Q01DX009 (ip), vehicle: saline with Tween-80
[4] = dose: 200.0 mg/kg/injection, schedule: Q04DX003 (ip), vehicle: saline with Tween-80
[5] = dose: 400.0 mg/kg/injection, schedule: Q04DX003 (ip), vehicle: saline with Tween-80

Measured: T/C

CCOC(=O)C(=C=[N-])[n+]1ccc(C)cc1
inactive: dose: 6.25 mg/kg/injection, schedule: Q01DX001 (ip), vehicle: saline sonified 101 % of control | dose: 6.25 mg/kg/injection, schedule: Q01DX009 (ip), vehicle: saline sonified 94 % of control | dose: 12.5 mg/kg/injection, schedule: Q01DX001 (ip), vehicle: saline sonified 103 % of control | dose: 12.5 mg/kg/injection, schedule: Q01DX009 (ip), vehicle: saline sonified 94 % of control | dose: 25.0 mg/kg/injection, schedule: Q01DX001 (ip), vehicle: saline sonified 103 % of control | dose: 25.0 mg/kg/injection, schedule: Q01DX009 (ip), vehicle: saline sonified 89 % of control

CCCCCCCCCCCCCCCCOC(=O)c1cc([N+](=O)[O-])c(Sc2ncnc3nc[nH]c23)c([N+](=O)[O-])c1
inactive: dose: 6.25 mg/kg/injection, schedule: Q01DX005 (ip), vehicle: other 105 % of control | dose: 12.5 mg/kg/injection, schedule: Q01DX005 (ip), vehicle: other 110 % of control | dose: 25.0 mg/kg/injection, schedule: Q01DX005 (ip), vehicle: other 107 % of control | dose: 50.0 mg/kg/injection, schedule: Q01DX005 (ip), vehicle: other 117 % of control | dose: 100.0 mg/kg/injection, schedule: Q01DX005 (ip), vehicle: other 102 % of control

CCCCNC(=S)S
inactive: [1] 100 % of control | [2] 100 % of control | [3] 102 % of control | [4] 92 % of control | dose: 400.0 mg/kg/injection, schedule: Q01DX009 (ip), vehicle: saline with Tween-80 100 % of control | [5] 94 % of control

CCCCC(C)(O)CC (configuration not stated)
inactive: [1] 93 % of control | [2] 95 % of control | [3] 95 % of control | [4] 105 % of control | [5] 107 % of control
